# From patent US20250250230A1, “HETEROCYCLIC COMPOUND” (TAKEDA PHARMACEUTICAL COMPANY LIMITED, priority 2022, published 2025)
# Target: T1, human orexin type 2 receptor (Homo sapiens, UniProt O43614)
# T1 construct: expressed in transfected cells
# T1 sequence (O43614 1-444): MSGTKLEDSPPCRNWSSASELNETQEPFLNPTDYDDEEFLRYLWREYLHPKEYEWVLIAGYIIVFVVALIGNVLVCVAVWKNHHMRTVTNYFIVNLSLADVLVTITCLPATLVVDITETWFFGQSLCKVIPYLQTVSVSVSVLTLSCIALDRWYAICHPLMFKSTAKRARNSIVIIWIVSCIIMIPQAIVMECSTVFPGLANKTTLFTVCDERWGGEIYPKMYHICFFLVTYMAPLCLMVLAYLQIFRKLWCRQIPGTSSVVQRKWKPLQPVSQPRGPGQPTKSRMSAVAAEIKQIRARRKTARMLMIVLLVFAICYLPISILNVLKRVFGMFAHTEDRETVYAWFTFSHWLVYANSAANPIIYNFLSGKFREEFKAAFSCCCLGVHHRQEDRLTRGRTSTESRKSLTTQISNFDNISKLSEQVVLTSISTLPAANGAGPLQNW
# Assay: Measurement of orexin type 2 receptor agonist activity (calcium fluorescence, Fluo-4 AM, FDSS)
# Type: cell-based
# Conditions: test compound 3 μM; CHO cells expressing human OX2 receptor; DMSO = 0%, orexin A (human) = 100%
# Summary of the method: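 CHO-K1 cells stably expressing human OX2R were loaded with Fluo-4 AM (30 min 37 °C, 30 min RT) in HEPES-buffered HBSS with 0.1% BSA and probenecid. Calcium fluorescence was followed on FDSS for 2 min after compound addition; activity normalised to DMSO (0%) and 10 nM orexin A (100%).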
row,Structure (SMILES),"OX2R agonist activity (3 μM, %)"
1,"CS(=O)(=O)NCC1CN(C(=O)C2CC2c2ccccc2-c2c(F)cccc2F)CCC1(F)F (racemic) [Example 275, a mixture of rac-N-({(3R)-1-[(1R,2R)-2-(2′,6′-difluoro[1,1′-biphenyl]-2-yl)cyclopropane-1-carbonyl]-4,4-difluoropiperidin-3-yl}methyl)methanesulfonamide and rac-N-({(3S)-1-[(1R,2R)-2-(2′,6′-difluoro[1,1′-biphenyl]-2-yl)cyclopropane-1-carbonyl]-4,4-difluoropiperidin-3-yl}methyl)methanesulfonamide]",57%
2,"CC1(C)C(C(=O)N2CCC[C@H](NS(C)(=O)=O)CC2)C1c1ccccc1-c1c(F)cccc1F (mixture of isomers) [Example 288, a mixture of N-{(4S)-1-[(1R,2R)-2-(2′,6′-difluoro[1,1′-biphenyl]-2-yl)-2,2-dimethylcyclopropane-1-carbonyl]azepan-4-yl}methanesulfonamide and N-{(4S)-1-[(1S,3S)-3-(2′,6′-difluoro[1,1′-biphenyl]-2-yl)-2,2-dimethylcyclopropane-1-carbonyl]azepan-4-yl}methanesulfonamide]",96%
3,"CC1(NS(C)(=O)=O)CN(C(=O)[C@@H]2C[C@@]2(F)c2ccccc2-c2c(F)cccc2F)CC1(F)F (stereo partly drawn) [Example 375, N-{(3R)-1-[(1S,2S)-2-(2′,6′-difluoro[1,1′-biphenyl]-2-yl)-2-fluorocyclopropane-1-carbonyl]-4,4-difluoro-3-methylpyrrolidin-3-yl}methanesulfonamide, or N-{(3S)-1-[(1S,2S)-2-(2′,6′-difluoro[1,1′-biphenyl]-2-yl)-2-fluorocyclopropane-1-carbonyl]-4,4-difluoro-3-methylpyrrolidin-3-yl}methanesulfonamide]",92%
4,"C[C@@H]1CN(C(=O)[C@@H]2C[C@@]2(F)c2ccccc2-c2c(F)cccc2F)C[C@@H](CNS(C)(=O)=O)O1 [Example 372, N-({(2S,6R)-4-[(1S,2S)-2-(2′,6′-difluoro[1,1′-biphenyl]-2-yl)-2-fluorocyclopropane-1-carbonyl]-6-methylmorpholin-2-yl}methyl)methanesulfonamide]",95%
5,"Cc1ccc(C2CC2C(=O)N2CCCC(NS(C)(=O)=O)C2)c(-c2c(F)cccc2F)c1 (racemic) [Example 166, a mixture of rac-N-{(3R)-1-[(1R,2R)-2-(2′,6′-difluoro-5-methyl[1,1′-biphenyl]-2-yl)cyclopropane-1-carbonyl]piperidin-3-yl}methanesulfonamide and rac-N-{(3S)-1-[(1R,2R)-2-(2′,6′-difluoro-5-methyl[1,1′-biphenyl]-2-yl)cyclopropane-1-carbonyl]piperidin-3-yl}methanesulfonamide]",110%
6,"CS(=O)(=O)NC1CCCN(C(=O)C2CC2c2ccc(F)cc2-c2c(F)cccc2F)CC1 (racemic) [Example 153, a mixture of rac-N-{(4R)-1-[(1R,2R)-2-(2′,5,6′-trifluoro[1,1′-biphenyl]-2-yl)cyclopropane-1-carbonyl]azepan-4-yl}methanesulfonamide and rac-N-{(4S)-1-[(1R,2R)-2-(2′,5,6′-trifluoro[1,1′-biphenyl]-2-yl)cyclopropane-1-carbonyl]azepan-4-yl}methanesulfonamide]",100%
7,"CC(NS(C)(=O)=O)[C@@H]1[C@H](C)CN1C(=O)[C@@H]1C[C@@]1(F)c1ccccc1-c1c(F)cccc1F (stereo partly drawn) [Example 401, N-[(1R)-1-{(2S,3R)-1-[(1S,2S)-2-(2′,6′-difluoro[1,1′-biphenyl]-2-yl)-2-fluorocyclopropane-1-carbonyl]-3-methylazetidin-2-yl}ethyl]methanesulfonamide, or N-[(1S)-1-{(2S,3R)-1-[(1S,2S)-2-(2′,6′-difluoro[1,1′-biphenyl]-2-yl)-2-fluorocyclopropane-1-carbonyl]-3-methylazetidin-2-yl}ethyl]methanesulfonamide]",79%
8,"CS(=O)(=O)NC[C@@H]1CN(C(=O)[C@@H]2C[C@H]2c2ccccc2-c2c(F)cccc2F)CCO1 [Example 283, N-({(2S)-4-[(1R,2R)-2-(2′,6′-difluoro[1,1′-biphenyl]-2-yl)cyclopropane-1-carbonyl]morpholin-2-yl}methyl)methanesulfonamide]",100%
9,"CS(=O)(=O)NC[C@@H]1CCN1C(=O)[C@@H]1C[C@H]1c1ccccc1-c1c(F)cc(F)cc1F [Example 403, N-({(2S)-1-[(1R,2R)-2-(2′,4′,6′-trifluoro[1,1′-biphenyl]-2-yl)cyclopropane-1-carbonyl]azetidin-2-yl}methyl)methanesulfonamide]",83%
10,"COC[C@@H]1CN(C(=O)[C@@H]2C[C@@]2(F)c2ccccc2-c2c(F)cccc2F)[C@@H]1CNS(C)(=O)=O [Example 397, N-{[(2S,3R)-1-[(1S,2S)-2-(2′,6′-difluoro[1,1′-biphenyl]-2-yl)-2-fluorocyclopropane-1-carbonyl]-3-(methoxymethyl)azetidin-2-yl]methyl}methanesulfonamide]",84%
11,"O=C([C@@H]1C[C@@]1(F)c1ccc(F)cc1-c1c(F)cccc1F)N1C[C@@H](F)[C@H]1CNS(=O)(=O)C(F)(F)F [Example 449, 1,1,1-trifluoro-N-({(2R,3R)-3-fluoro-1-[(1S,2S)-2-fluoro-2-(2′,5,6′-trifluoro[1,1′-biphenyl]-2-yl)cyclopropane-1-carbonyl]azetidin-2-yl}methyl)methanesulfonamide]",94%
12,"CS(=O)(=O)NC1CCN(C(=O)C2CC2c2cscc2-c2c(F)cccc2F)C1 (racemic) [Example 321, a mixture of rac-N-[(3R)-1-{(1R,2R)-2-[4-(2,6-difluorophenyl)thiophen-3-yl]cyclopropane-1-carbonyl}pyrrolidin-3-yl]methanesulfonamide and rac-N-[(3R)-1-{(1R,2R)-2-[4-(2,6-difluorophenyl)thiophen-3-yl]cyclopropane-1-carbonyl}pyrrolidin-3-yl]methanesulfonamide]",95%
13,"C[C@H]1CN(C(=O)[C@@H]2C[C@@]2(F)c2ccccc2-c2c(F)cccc2F)C[C@@H](CNS(C)(=O)=O)O1 [Example 364, N-({(2S,6S)-4-[(1S,2S)-2-(2′,6′-difluoro[1,1′-biphenyl]-2-yl)-2-fluorocyclopropane-1-carbonyl]-6-methylmorpholin-2-yl}methyl)methanesulfonamide]",88%
14,"CS(=O)(=O)N[C@H]1CCCN(C(=O)C2CC2(F)c2ccccc2-c2c(F)cccc2F)C1 (mixture of isomers) [Example 199, a mixture of N-{(3S)-1-[(1R,2R)-2-(2′,6′-difluoro[1,1′-biphenyl]-2-yl)-2-fluorocyclopropane-1-carbonyl]piperidin-3-yl}methanesulfonamide and N-{(3S)-1-[(1S,2S)-2-(2′,6′-difluoro[1,1′-biphenyl]-2-yl)-2-fluorocyclopropane-1-carbonyl]piperidin-3-yl}methanesulfonamide]",104%
15,"Cc1ccc(C2CC2C(=O)N2CC[C@H](NS(C)(=O)=O)C2)c(-c2c(F)cccc2F)c1 (stereo partly drawn) [Example 318, N-{(3S)-1-[(1R,2R)-2-(2′,6′-difluoro-5-methyl [1,1′-biphenyl]-2-yl)cyclopropane-1-carbonyl]pyrrolidin-3-yl}methanesulfonamide, or N-{(3S)-1-[(1S,2S)-2-(2′,6′-difluoro-5-methyl[1,1′-biphenyl]-2-yl)cyclopropane-1-carbonyl]pyrrolidin-3-yl}methanesulfonamide]",96%
16,"CS(=O)(=O)NC1CCN(C(=O)C2CC2c2c(F)cccc2-c2ccccc2Cl)C1 (racemic) [Example 126, a mixture of rac-N-{(3R)-1-[(1R,2R)-2-(2′-chloro-3-fluoro[1,1′-biphenyl]-2-yl)cyclopropane-1-carbonyl]pyrrolidin-3-yl}methanesulfonamide and rac-N-{(3S)-1-[(1R,2R)-2-(2′-chloro-3-fluoro[1,1′-biphenyl]-2-yl)cyclopropane-1-carbonyl]pyrrolidin-3-yl}methanesulfonamide]",89%
17,"CS(=O)(=O)N[C@H]1CCN(C(=O)C2CC2c2ccc(F)cc2-c2c(F)cccc2F)C1 (single isomer, unassigned) [Example 200, N-{(3S)-1-[(1R,2R)-2-(2′,5,6′-trifluoro[1,1′-biphenyl]-2-yl)cyclopropane-1-carbonyl]pyrrolidin-3-yl}methanesulfonamide, or N-{(3S)-1-[(1S,2S)-2-(2′,5,6′-trifluoro[1,1′-biphenyl]-2-yl)cyclopropane-1-carbonyl]pyrrolidin-3-yl}methanesulfonamide]",103%
18,"CS(=O)(=O)NC1CN(C(=O)C2CC2c2ccc(F)cc2-c2c(F)cccc2F)CC1(F)F (stereo not drawn) [Example 245, N-{4,4-difluoro-1-[2-(2′,5,6′-trifluoro[1,1′-biphenyl]-2-yl)cyclopropane-1-carbonyl]pyrrolidin-3-yl}methanesulfonamide optical isomer]",103%
